# According to patent publication US4996225A, “Tri-phenyl alkane derivatives and their oestrogenic, anti-oestrogenic and progestanic uses” (Farmos Group Ltd., priority 1982, dated 1991):
# What was measured:
# immature mouse uterus [1] = test: oestrogenic effect, uterus weight of immature mice; type: in vivo
# Protocol: (§1) The oestrogen-antiestrogen (progesterone) effect of the new compounds in vivo was determined as follows: (1) The oestrogenic properties were determined by administering the new compounds, suspended in sesame oil, subcutaneously to 21 days old immature mice on three consecutive days. The mice were killed on the fourth day and the uterus was weighed. […] The weight correlates with the oestrogenic effect of the compound tested. […] In this case, the ability of the molecules to inhibit oestrogen-induced uterus weight increase was also investigated.
# [2] = test system: estradiol induced weight increase in immature mouse uterus; test: antiestrogenic effect, inhibition of oestrogen-induced uterus weight increase in immature mice; type: in vivo; details: for inhibition of estradiol-induced uterus weight increase / inhibition of estradiol-induced uterus weight increase (in words): 5 mg/kg, estradiol 5 μg/kg
# Protocol: as §1
# [3] = test system: MCF-7 cell line (human mammary adenocarcinoma); test: anti-tumour effect in vitro, growth of MCF-7 cell line (bioluminescence assay, intracellular ATP); type: cell-based; details: read-out: Antitumour effect against MCF-7 cell line (IC50 = concentration of compound where 50% inhibition of cell growth could be seen)
# Protocol: The anti-tumour effect was studied in vitro as follows:
# The amount of living cells after 4 h, 24 h and 48 h incubations were determined by bioluminescence assay (intracellular ATP determination).
# inhibition of cell growth could be seen.
# [4] = test system: DMBA-induced rat mammary adenocarcinomas; test: antitumour effect in vivo against DMBA-induced rat mammary adenocarcinoma; details: rat, in vivo
# Protocol: The anti-tumour effect was investigated in vivo against DMBA-induced rat mammary adenocarcinomas, transplantable mammary and ovarial adenocarcinoma and transplantable prostatic squamous cell carcinoma by the following methods:
# Mammary adenocarcinomas were induced by DMBA in 35-40 days old female rats. […] Tumour size and numbers of tumours were evaluated twice a week. Tumour sizes in the control group, treated with solvent, were compared with the test groups.
# The size refers to the width×height of the tumour. The growth rate is a difference between sizes compared with that of the first day of the treatment.
# immature mouse uterus [5] = test: progestanic effect, uterus weight of immature mice (alone or with medroxyprogesterone acetate); type: in vivo
# Protocol: Medroxy-progesterone acetate, which decreases uterus weight, was used as reference.
# The progestanic effects of the compounds were measured as described earlier.
Compound,IC50 [3],increase in uterus weight (immature mouse uterus [1]; 5 mg/kg),inhibition of estradiol-induced uterus weight increase [2],amount of new tumours (in words) [4],growth rate of the tumours (in words) [4],other results
"ClCC[C@H](c1ccccc1)[C@H](c1ccccc1)c1ccc(OCCN2CCCC2)cc1 (relative stereo) [Compound 28, 4-chloro-1,2-diphenyl-1-[4-[2-(1-pyrrolidinyl)-ethoxy]phenyl]-butane]",5 to 10 µM,≤ 55%,68-100%,the amount of new tumours decreased,the growth rate of the tumours decreased,
"OCCC/C(=C(/c1ccccc1)c1ccc(O)cc1)c1ccccc1 [6, (E)-isomer]",5 to 10 µM,,,,,
"CN(C)CCOc1ccc(/C(=C(\CCCl)c2ccccc2)c2ccccc2)cc1 [Compound 18, 4-chloro-1,2-diphenyl-1-[4-[2-(N,N-dimethylamino)ethoxy]phenyl]-1-butene]",1 to 5 µM,,,,,"effect given alone: estrogenic (in words) (immature mouse uterus [1]; given alone): estrogenic; increase in the weights of mice uterus, given alone (immature mouse uterus [1]; given alone): 20%; effect with estradiol (in words) ([2]; with estradiol 0.05 mg/kg): not anti-; reduction in the weights of mice uterus, with estradiol ([2]; with estradiol 0.05 mg/kg): < 10%; effect with medroxyprogesterone (in words) (immature mouse uterus [5]; with medroxyprogesterone 0.06 mg/kg): no effect"
"CN(C)CCOc1ccc(/C(=C(/CCO)c2ccccc2)c2ccccc2)cc1 [Compound 20, 1,2-diphenyl-1-[4-[2-(N,N-dimethylamino)ethoxy]phenyl]-1-buten-4-ol]",,less than 30%,less than 33%,,only the growth rate of the tumours was reduced,increase in uterus weight (in words) (immature mouse uterus [1]; 5 mg/kg): statistically significant increase in uterus weight; inhibition of estradiol-induced uterus weight increase (in words) [2]: inhibited the uterus weight increase in a statistically significant manner
"ClCC/C(=C(/c1ccccc1)c1ccc(OCCN2CCCC2)cc1)c1ccccc1 [Compound 26, 4-chloro-1,2-diphenyl-1-[4-[2-(1-pyrrolidinyl)-ethoxy]phenyl]-1-butene]",1 to 5 µM,≤ 30%,less than 33%,,only the growth rate of the tumours was reduced,
"CC(=O)O[C@]1(C(C)=O)CC[C@H]2[C@@H]3C[C@H](C)C4=CC(=O)CC[C@]4(C)[C@H]3CC[C@@]21C [Medroxyprogesterone acetate, reference compound]",,,,,,inhibition in the weight of immature mouse uterus (immature mouse uterus [5]; positive control): up to 40%

# The next lines start with results.
IC50 [3],Compound,increase in uterus weight (immature mouse uterus [1]; 5 mg/kg),inhibition of estradiol-induced uterus weight increase [2],amount of new tumours (in words) [4],growth rate of the tumours (in words) [4],other results
1 to 5 µM,"ClCC[C@@H](c1ccccc1)[C@H](c1ccccc1)c1ccc(OCCN2CCCC2)cc1 (relative stereo) [Compound 27, 4-chloro-1,2-diphenyl-1-[4-[2-(1-pyrrolidinyl)-ethoxy]phenyl]-butane]",≤ 55%,less than 33%,the amount of new tumours decreased,the growth rate of the tumours decreased,
1 to 5 µM,CC(=O)OCC/C(=C(\c1ccccc1)c1ccc(OCCN(C)C)cc1)c1ccccc1 [Compound 19],≤ 30%,,,only the growth rate of the tumours was reduced,inhibition of estradiol-induced uterus weight increase (in words) [2]: did not inhibit
1 to 5 µM,"CCN(CC)CCOc1ccc(/C(=C(/CCCl)c2ccccc2)c2ccccc2)cc1 [Compound 24, 4-chloro-1,2-diphenyl-1-[4-[2-(N,N-diethylamino)ethoxy]phenyl]-1-butene]",≤ 55%,less than 67%,,only the growth rate of the tumours was reduced,
< 5 µM,"ClCC/C(=C(\c1ccccc1)c1ccc(OCCN2CCCC2)cc1)c1ccccc1 [Compound 25, 4-chloro-1,2-diphenyl-1-[4-[2-(1-pyrrolidinyl)-ethoxy]phenyl]-1-butene]",≤ 55%,68-100%,the amount of new tumours decreased,the growth rate of the tumours decreased,
